Results as given in US12419862B2, “Use of a cathepsin s inhibitor against the formation of anti-drug antibodies” (Hoffmann-La Roche Inc., priority 2018, dated 2025).

Tests used:
[1] = tested on: CEA-specific IgG response; test: ADA against CEA-IL2v in wild-type mice over time, ELISA (Example 4, 63 days); assay type: in vivo, C57BL/6 wild type mice; conditions: 40 mg/kg/day via food admix, primary and memory response, samples to day 63, vs vehicle
Experimental: 15-week-old mice C57BL/6-Tg (hIgG1,k,l) and C57BL/6 wild type mixed gender were purchased from Taconic (Denmark) and housed at the animal facilities in room with air-conditioned under a 12 hours light/dark cycle in macrolon boxes with enriched environment and free access to water and food. 7×10 μg of CEA-IL2v (Batch no GLI0144-01) were injected at day 0, 4, 7, 11, 14, 18 and 21 for the primary response, and at day 49, 53, 56 and 60 for the memory response. The CEA-112v injections were done subcutaneously in the right flank or the left flank alternatively. The dosage of (2S,4R)-4-[4-(1-methyl-1H-pyrazol-4-yl)-2-trifluoromethyl-benzenesulfonyl]-1-(1-trifluoromethyl-cyclopropanecarbonyl)-pyrrolidine-2-carboxylic acid (1-cyano-cyclopropyl)-amide consumption was 40 mg/kg/day. […]
(§1) Nunc Maxisorp flat-bottom 96 well ELISA plates were coated with 100 μl per well of Humira or CEA-PGLALA respectively at 5 μg/mL in NaHCO3100 mM buffer overnight at +4° C. […] 100 μl of substrate P-nitrophenyl phosphate ready to use (Life Technologies, Cat no 002212) were added per well and after 10 min incubation at room temperature, the OD at 405 nm was read as an end-point measurement with a Versamax ELISA reader.

[2] = tested on: IgG response to murine surrogate PD-L1; test: ADA against murine surrogate PD-L1 in wild-type mice, ELISA (Example 7); assay type: in vivo, C57BL/6 mice; conditions: 40 mg/kg/day via food admix from one week before first immunization until day 23
Experimental: 10-week-old female mice C57BL/6 were purchased from Charles River Laboratories (Germany) and housed at the animal facilities in room with air-conditioned under a 12 hours light/dark cycle in macrolon boxes with enriched environment and free access to water and food. 10 mg/kg of muPD-L1 (P1AE4930-001) were injected at day 1, 8 and 15 intravenously to the group 4 (n=10 mice) and at day 1, 8, 15 and 22 to the group 5 (n=10 mice) respectively. The dosage of (2S,4R)-4-[4-(1-methyl-1H-pyrazol-4-yl)-2-trifluoromethyl-benzenesulfonyl]-1-(1-trifluoromethyl-cyclopropanecarbonyl)-pyrrolidine-2-carboxylic acid (1-cyano-cyclopropyl)-amide consumption was 40 mg/kg/day. (2S,4R)-4-[4-(1-methyl-1H-pyrazol-4-yl)-2-trifluoromethyl-benzenesulfonyl]-1-(1-trifluoromethyl-cyclopropanecarbonyl)-pyrrolidine-2-carboxylic acid (1-cyano-cyclopropyl)-amide was given via food admix (Ssniff Spezialdiäten, Germany) daily from one week before the first muPD-L1 immunization until day 23 to the group 5. […]
as §1, with “anti muPD-L1 (P1AE4930-001)” for “Humira or CEA-PGLALA respectively”

Compound: Cn1cc(-c2ccc(S(=O)(=O)[C@@H]3C[C@@H](C(=O)NC4(C#N)CC4)N(C(=O)C4(C(F)(F)F)CC4)C3)c(C(F)(F)F)c2)cn1 [cathepsin S inhibitor, (2S,4R)-4-[4-(1-methyl-1H-pyrazol-4-yl)-2-trifluoromethyl-benzenesulfonyl]-1-(1-trifluoromethyl-cyclopropanecarbonyl)-pyrrolidine-2-carboxylic acid (1-cyano-cyclopropyl)-amide]
- ADA to CEA-IL2v (CEA-specific IgG) over time [1]: reduces its levels in wild-type mice
- ADA to mPD-L1 [2]: significantly reduced ADA to mPD-L1
